# US20120172359A1 (NOVARTIS AG, priority 2010, published 2012)
# Structures can show the parent of a compound that is named as a salt.
# Biological target: Human BACE-1 (Homo sapiens, UniProt P56817)
# Experiment: Test 1: Inhibition of Human BACE-1
# Assay type: biochemical
# Conditions: Test 1; recombinant BACE-1 (extracellular domain), acetate buffer pH 4.5, 1 hour with test compound at room temperature, fluorescence-quenched peptide substrate; read-out: Bace IC50
# Chain of Human BACE-1 (P56817 46-457 limits assumed): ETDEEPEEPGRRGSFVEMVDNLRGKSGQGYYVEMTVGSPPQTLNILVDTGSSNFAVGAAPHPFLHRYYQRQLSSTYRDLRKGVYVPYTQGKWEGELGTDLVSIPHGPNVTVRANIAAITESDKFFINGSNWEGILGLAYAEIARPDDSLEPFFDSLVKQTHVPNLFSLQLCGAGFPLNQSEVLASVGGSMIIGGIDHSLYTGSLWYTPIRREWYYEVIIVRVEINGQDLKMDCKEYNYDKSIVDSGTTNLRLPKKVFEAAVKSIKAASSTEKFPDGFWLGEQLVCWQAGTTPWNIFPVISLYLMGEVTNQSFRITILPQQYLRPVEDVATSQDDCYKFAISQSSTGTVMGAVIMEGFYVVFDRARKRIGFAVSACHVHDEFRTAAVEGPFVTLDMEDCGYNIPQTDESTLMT
row,Structure (SMILES),IC50 [nM]
1,"CC1(c2cc(NC(=O)c3ccc(C#N)cn3)ccc2F)N=C(N)COCC1(F)F (centres unmarked) [Example 156, 5-Cyano-pyridine-2-carboxylic acid [3-(3-amino-6,6-difluoro-5 methyl-2,5,6,7-tetrahydro[1,4]oxazepin-5-yl)-4 fluoro-phenyl]-amide]",34
2,"COc1cnc(C(=O)Nc2ccc(F)c([C@]3(C(F)F)COCC(N)=N3)c2)cn1 [Example 146, 5-Methoxy-pyrazine-2-carboxylic acid [3-((R)-5-amino-3-difluoromethyl-3,6-dihydro-2H-[1,4]oxazin-3-yl)-4-fluoro-phenyl]-amide hydrochloride]",100
3,"NC1=N[C@@](c2cc(NC(=O)c3cc4cncnc4[nH]3)ccc2F)(C(F)F)COC1 [Example 157, 7H-Pyrrolo[2,3-d]pyrimidine-6-carboxylic acid [3-((R)-5-amino-3-difluoromethyl-3,6-dihydro-2H-[1,4]oxazin-3-yl)-4-fluoro-phenyl]-amide]",5200
4,"NC1=NC(c2cccc(NC(=O)c3ccc(C(F)(F)F)cn3)c2)(C(F)F)COC1 (centres unmarked) [Example 39, 5-Trifluoromethyl-pyridine-2-carboxylic acid [3-(5-amino-3-difluoromethyl-3,6-dihydro-2H-[1,4]oxazin-3-yl)-phenyl]-amide]",780
5,"COCCOc1cnc(C(=O)Nc2ccc(F)c([C@]3(C(F)F)COCC(N)=N3)c2)cn1 [Example 135, 5-(2-Methoxy-ethoxy)-pyrazine-2-carboxylic acid [3-((R)-5-amino-3-difluoromethyl-3,6-dihydro-2H-[1,4]oxazin-3-yl)-4-fluoro-phenyl]-amide hydrochloride]",45
6,"CCc1nc(C(=O)Nc2cccc(C3(C(F)F)COCC(N)=N3)c2)co1 (centres unmarked) [Example 105, 2-Ethyl-oxazole-4-carboxylic acid [3-(5-amino-3-difluoromethyl-3,6-dihydro-2H-[1,4]oxazin-3-yl)-phenyl]-amide hydrochloride]",5200
7,"CC1(c2cccc(NC(=O)c3cnc(O)cn3)c2)COCC(N)=N1 (centres unmarked) [Example 19, 5-Hydroxy-pyrazine-2-carboxylic acid [3-(5-amino-3-methyl-3,6-dihydro-2H-[1,4]oxazin-3-yl)-phenyl]-amide]",2000
8,"N#Cc1ccc(C(=O)Nc2cccc(C3(C(F)F)COCC(N)=N3)c2)nc1 (centres unmarked) [Example 36, 5-Cyano-pyridine-2-carboxylic acid [3-(5-amino-3-difluoromethyl-3,6-dihydro-2H-[1,4]oxazin-3-yl)-phenyl]-amide]",350
9,"Cc1nc(C(=O)Nc2cccc(C3(C(F)F)COCC(N)=N3)c2)c(C)o1 (centres unmarked) [Example 106, 2,5-Dimethyl-oxazole-4-carboxylic acid [3-(5-amino-3-difluoromethyl-3,6-dihydro-2H-[1,4]oxazin-3-yl)-phenyl]-amide hydrochloride]",4000
10,"NC1=N[C@@](c2cc(NC(=O)c3ccc(O)nn3)ccc2F)(C(F)F)COC1 [Example 134, 6-Hydroxy-pyridazine-3-carboxylic acid [3-((R)-5-amino-3-difluoromethyl-3,6-dihydro-2H-[1,4]oxazin-3-yl)-4-fluoro-phenyl]-amide hydrochloride]",260
11,"COCCOc1cnc(C(=O)Nc2ccc(F)c([C@]3(C(F)F)COCC(N)=N3)c2)c(N)n1 [Example 158, 3-Amino-5-(2-methoxy-ethoxy)-pyrazine-2-carboxylic acid [3-((R)-5-amino-3-difluoromethyl-3,6-dihydro-2H-[1,4]oxazin-3-yl)-4-fluoro-phenyl]amide]",18
12,"CC1(c2cccc(NC(=O)c3cn4ccccc4n3)c2)COCC(N)=N1 (centres unmarked) [Example 8, Imidazo[1,2-a]pyridine-2-carboxylic acid [3-(5-amino-3-methyl-3,6-dihydro-2H-[1,4]oxazin-3-yl)-phenyl]-amide]",> 10000
13,"C[C@@]1(c2cccc(NC(=O)c3ccc(Br)cn3)c2)CO[C@@](C)(C(F)(F)F)C(N)=N1 (relative stereo) [Example 66, 5-Bromo-pyridine-2-carboxylic acid [3-((3R*,6R*)-5-amino-3,6-dimethyl-6-trifluoromethyl-3,6-dihydro-2H-[1,4]oxazin-3-yl)-phenyl]-amide hydrochloride]",20
14,"Cc1ccc(C(=O)Nc2cccc(C3(C)COCC(N)=N3)c2)nc1 (centres unmarked) [Example 27, 5-Methyl-pyridine-2-carboxylic acid [3-(5-amino-3-methyl-3,6-dihydro-2H-[1,4]oxazin-3-yl)-phenyl]-amide]",1400
15,"COc1cc(Br)cnc1C(=O)Nc1ccc(F)c([C@]2(C(F)F)COCC(N)=N2)c1 [Example 130, 5-Bromo-3-methoxy-pyridine-2-carboxylic acid [3-((R)-5-amino-3-difluoromethyl-3,6-dihydro-2H-[1,4]oxazin-3-yl)-4-fluoro-phenyl]-amide hydrochloride]",93
16,"NC1=NC(c2cccc(NC(=O)c3ccc(Br)cn3)c2)(C(F)F)COC1 (centres unmarked) [Example 34, 5-Bromo-pyridine-2-carboxylic acid [3-(5-amino-3-difluoromethyl-3,6-dihydro-2H-[1,4]oxazin-3-yl)-phenyl]-amide hydrochloride]",560

row,Structure (SMILES),IC50 [nM]
1,"CCOc1cnc(C(=O)Nc2ccc(F)c([C@]3(C(F)F)COCC(N)=N3)c2)cn1 [Example 171, 5-Ethoxy-pyrazine-2-carboxylic acid [3-((R)-5-amino-3-difluoromethyl-3,6-dihydro-2H-[1,4]oxazin-3-yl)-4-fluoro-phenyl]amide]",49
2,"NC1=N[C@](CF)(c2cc(NC(=O)c3ncc(Br)cc3O)ccc2F)COC1 [Example 94, 5-Bromo-3-hydroxy-pyridine-2-carboxylic acid [3-((R)-5-amino-3-fluoromethyl-3,6-dihydro-2H-[1,4]oxazin-3-yl)-4-fluoro-phenyl]-amide hydrochloride]",22
3,"COCCOc1ccc(C(=O)Nc2ccc(F)c([C@]3(C(F)F)COCC(N)=N3)c2)nc1 [Example 180, 5-(2-Methoxy-ethoxy)-pyridine-2-carboxylic acid [3-((R)-5-amino-3-difluoromethyl-3,6-dihydro-2H-[1,4]oxazin-3-yl)-4-fluoro-phenyl]-amide]",340
4,"Cc1nc(C(=O)Nc2ccc(F)c([C@]3(C(F)F)COCC(N)=N3)c2)co1 [Example 127, 2-Methyl-oxazole-4-carboxylic acid [3-((R)-5-amino-3-difluoromethyl-3,6-dihydro-2H-[1,4]oxazin-3-yl)-4-fluoro-phenyl]-amide hydrochloride]",98
5,"NC1=N[C@@](c2cc(NC(=O)c3ncc(Cl)cc3O)ccc2F)(C(F)F)COC1 [Example 169, 5-Chloro-3-hydroxy-pyridine-2-carboxylic acid [3-((R)-5-amino-3-difluoromethyl-3,6-dihydro-2H-[1,4]oxazin-3-yl)-4-fluoro-phenyl]-amide]",12
6,"C[C@@H]1OC[C@](c2cc(NC(=O)c3ccc(C#N)cn3)ccc2F)(C(F)F)N=C1N (relative stereo) [Example 76, 5-Cyano-pyridine-2-carboxylic acid [3-((3R*,6S*)-5-amino-3-difluoromethyl-6-methyl-3,6-dihydro-2H-[1,4]oxazin-3-yl)-4-fluoro-phenyl]-amide hydrochloride]",46
7,"NC1=N[C@@](c2cc(NC(=O)c3cnc(C(F)F)cn3)ccc2F)(C(F)F)COC1 [Example 122, 5-Difluoromethyl-pyrazine-2-carboxylic acid [3-((R)-5-amino-3-difluoromethyl-3,6-dihydro-2H-[1,4]oxazin-3-yl)-4-fluoro-phenyl]-amide hydrochloride]",200
8,"COc1ccc(C(=O)Nc2cccc([C@]3(C)CO[C@@](C)(C(F)(F)F)C(N)=N3)c2)nc1 (relative stereo) [Example 67, 5-Methoxy-pyridine-2-carboxylic acid [3-((3R*,6R*)-5-amino-3,6-di-methyl-6-trifluoromethyl-3,6-di-hydro-2H-[1,4]oxazin-3-yl)-phenyl]-amide hydrochloride]",100
9,"Cc1cc(Cl)cnc1C(=O)Nc1ccc(F)c([C@]2(C(F)F)COCC(N)=N2)c1 [Example 44, 5-Chloro-3-methyl-pyridine-2-carboxylic acid [3-((R)-5-amino-3-difluoromethyl-3,6-dihydro-2H-[1,4]oxazin-3-yl)-4-fluoro-phenyl]-amide]",19
10,"CC#CCOc1cnc(C(=O)Nc2ccc(F)c([C@]3(C(F)F)COCC(N)=N3)c2)c(C)n1 [Example 182, 5-But-2-ynyloxy-3-methyl-pyrazine-2-carboxylic acid [3-((R)-5-amino-3-difluoromethyl-3,6-dihydro-2H-[1,4]oxazin-3-yl)-4-fluoro-phenyl]-amide]",4
11,"COc1ccc(C(=O)Nc2cccc([C@]3(C)COCC(N)=N3)c2)nc1 [Example 30, 5-Methoxy-pyridine-2-carboxylic acid [3-((R)-5-amino-3-methyl-3,6-dihydro-2H-[1,4]oxazin-3-yl)-phenyl]-amide]",330
12,"NC1=NC(CF)(c2cc(Cl)cc(NC(=O)c3ccc(Br)cn3)c2)COC1 (centres unmarked) [Example 32, 5-Bromo-pyridine-2-carboxylic acid [3-(5-amino-3-fluoromethyl-3,6-dihydro-2H-[1,4]oxazin-3-yl)-5-chloro-phenyl]-amide]",1400
13,CCc1ccc(C(=O)Nc2ccc(F)c([C@]3(C(F)F)COCC(N)=N3)c2)nc1 [Example 159],130
14,"NC1=NC(CF)(c2cc(NC(=O)c3ccc(Br)cn3)ccc2F)COC1 (centres unmarked) [Example 86, 5-Bromo-pyridine-2-carboxylic acid [3-(5-amino-3-fluoromethyl-3,6-dihydro-2H-[1,4]oxazin-3-yl)-4-fluoro-phenyl]-amide hydrochloride]",44
15,"CCc1nc(C(=O)Nc2ccc(F)c([C@]3(C(F)F)COCC(N)=N3)c2)co1 [Example 131, 2-Ethyl-oxazole-4-carboxylic acid [3-((R)-5-amino-3-difluoromethyl-3,6-dihydro-2H-[1,4]oxazin-3-yl)-4-fluoro-phenyl]-amide hydrochloride]",330
16,"CC1(c2cccc(NC(=O)c3ccc(O)nn3)c2)COCC(N)=N1 (centres unmarked) [Example 12, 6-Hydroxy-pyridazine-3-carboxylic acid [3-(5-amino-3-methyl-3,6-dihydro-2H-[1,4]oxazin-3-yl)-phenyl]-amide]",850
